pIC50, pKd: −log10 of the molar value.
Legend:
[1] = target: T1, cytochrome P450 2B4 (Oryctolagus cuniculus, UniProt P00178, H226Y); assay: X-ray crystal structure; assay type: binding
T1 sequence (P00178 28-491 H226Y): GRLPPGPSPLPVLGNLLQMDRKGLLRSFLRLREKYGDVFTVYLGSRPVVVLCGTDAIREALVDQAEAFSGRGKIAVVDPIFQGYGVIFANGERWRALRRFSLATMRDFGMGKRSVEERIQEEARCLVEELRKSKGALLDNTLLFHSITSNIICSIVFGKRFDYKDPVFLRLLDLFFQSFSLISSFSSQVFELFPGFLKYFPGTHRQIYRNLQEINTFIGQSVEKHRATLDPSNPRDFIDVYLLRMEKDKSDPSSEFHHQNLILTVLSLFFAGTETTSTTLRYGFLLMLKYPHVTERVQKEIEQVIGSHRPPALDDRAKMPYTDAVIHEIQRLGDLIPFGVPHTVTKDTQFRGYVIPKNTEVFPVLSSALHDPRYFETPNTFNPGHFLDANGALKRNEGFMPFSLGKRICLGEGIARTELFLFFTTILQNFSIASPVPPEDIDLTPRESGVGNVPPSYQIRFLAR

[2] = target: T2, cytochrome P450 2B6 (Homo sapiens, UniProt P20813, K262R/Y226H); assay: X-ray crystal structure; assay type: biochemical
T2 sequence (P20813 29-491 Y226H/K262R): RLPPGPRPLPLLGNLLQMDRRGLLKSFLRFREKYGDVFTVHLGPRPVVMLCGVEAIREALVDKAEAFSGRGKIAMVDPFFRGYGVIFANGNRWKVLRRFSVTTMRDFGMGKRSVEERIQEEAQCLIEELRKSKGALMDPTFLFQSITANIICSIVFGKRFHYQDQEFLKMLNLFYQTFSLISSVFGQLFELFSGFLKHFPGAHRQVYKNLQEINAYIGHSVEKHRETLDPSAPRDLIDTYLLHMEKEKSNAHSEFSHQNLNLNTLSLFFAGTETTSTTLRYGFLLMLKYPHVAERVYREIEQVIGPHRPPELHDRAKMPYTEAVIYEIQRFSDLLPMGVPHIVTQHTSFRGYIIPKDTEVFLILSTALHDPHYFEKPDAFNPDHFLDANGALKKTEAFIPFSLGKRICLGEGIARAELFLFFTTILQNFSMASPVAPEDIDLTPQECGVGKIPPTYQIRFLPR

Work on CCOC(=O)C1=C(COCCN)NC(C)=C(C(=O)OC)C1c1ccccc1Cl (centres unmarked) [amlodipine] yielded a pKd [1] of 5.69 and a pIC50 [2] of 5.80.
